Experiments:
[1] = cited from earlier work
[2] = test system: IL-1β induced chondrocytes; experiment: Chondroprotective effect: CCK-8 viability of IL-1β induced chondrocytes; type: cell-based, rat; details: LiCl 10 mM, IL-1β 10 ng/mL, 48 h
Description: The capacity of SLFNP was assessed to protect chondrocytes from deterioration induced by inflammatory cytokines. Chondrocytes were first incubated with SLFNP and then added to the medium 10 ng/mL interleukin-1-beta (IL-1β), a major inflammatory cytokine involved in chronic OA. For comparison, chondrocytes were treated with PBS or LiCl salt (10 mM) before adding IL-1β. In the PBS group, CCK-8 assay found a marked drop of cell viability (37.64% at 48 h). […]

[3] = test system: IL-1β induced chondrocytes; experiment: Live/dead assay of IL-1β induced chondrocytes; type: cell-based, rat; details: vs PBS group, IL-1β 10 ng/mL
Description: (§1) Cells were divided into nine groups: (1) Control: chondrocytes treated with SLFNP; (2) IL-1β: chondrocytes treated with 10 ng/mL IL-1β (Gibco, USA) and cultured for 2 days; (3) LiCl+IL-1β: chondrocytes pre-incubated with LiCl for 1 h followed by treatment with 10 ng/mL IL-1β for 2 days; (4) 1 mM SLFNP+IL-1β: chondrocytes pre-incubated with 1 mM SLFNP for 1 h followed by treatment with IL-1β for 2 days; (5) 5 mM SLFNP+IL-1β: chondrocytes pre-incubated with 5 mM SLFNP for 1 h followed by treatment with IL-1β for 2 days; (6) HA+IL-1β: condrocytes pre-incubated with 10 mg/mL HA for 1 h followed by treatment with IL-1β for 2 days; (7) HA+LiCl+IL-1β: chondrocytes pre-incubated with 10 mM LiCl and HA for 1 h followed by treatment with IL-1β for 2 days; (8) HA+1 mM SLFNP+IL-1β: chondrocytes pre-incubated with 1 mM SLFNP and HA for 1 h followed by treatment with IL-1β for 2 days; (9) HA+5 mM SLFNP+IL-1β: chondrocytes pre-incubated with 5 mM SLFNP and HA for 1 h followed by treatment with IL-1β for 2 days.
Cells were treated as the same procedures as described above. Live/dead assays were performed using a live/dead viability assay kit (Invitrogen, USA) after 2 days of culture. Briefly, cells were incubated in a solution containing […] of calcein AM and […] of ethidium homodimer-1 for 40 min at room temperature in the dark. […]

MMP-13 = experiment: Immunofluorescence staining of MMP-13 in IL-1β stimulated chondrocytes; type: cell-based, rat; details: pre-incubation before IL-1β 10 ng/mL
Description: as §1
After 2 days of culture, cells in the different treatment groups were washed twice with PBS, fixed in 4% formalin for 20 min, and permeabilized with 0.3% Triton X-100 (WN) in PBS for 10 min. After blocking with 5% BSA in PBS for 1 hour at room temperature, primary MMP-13 antibodies were added (1:200 dilution, Abcam, USA) and incubated at 4° C. overnight. […]

MMP3 = experiment: qRT-PCR of MMP3 in IL-1β stimulated chondrocytes; type: cell-based, rat; details: compared to IL-1β-stimulated cells
Description: as §1
(§2) RNA was isolated from chondrocytes in all groups after 2 days of treatment using an RNA isolation kit (Tiangen Biotechnology). […]

IL6 = experiment: qRT-PCR of IL6 in IL-1β stimulated chondrocytes; type: cell-based, rat; details: compared to IL-1β-stimulated cells
Description: as §1, §2

ADAMTS5 = experiment: qRT-PCR of ADAMTS5 in IL-1β stimulated chondrocytes; type: cell-based, rat; details: compared to IL-1β-stimulated cells
Description: as §1, §2

COX-2 = experiment: qRT-PCR of COX-2 in IL-1β stimulated chondrocytes; type: cell-based, rat; details: compared to IL-1β-stimulated cells
Description: as §1, §2

iNOS = experiment: qRT-PCR of iNOS in IL-1β stimulated chondrocytes; type: cell-based, rat; details: compared to IL-1β-stimulated cells
Description: as §1, §2

[4] = test system: Sprague-Dawley rats with surgery-induced OA; experiment: Macroscopic evaluation of cartilage lesions in rat ACLT OA model; type: in vivo
Description: In vivo analysis was performed in Sprague-Dawley rats which had undergone bilateral anterior cruciate ligament transection (ACTL) surgery. One month after the surgery, the animals were randomly sorted into six groups (n=24) and were i.a. injected once per week with the following regimens: SLFNP+HA (1.74 μg Li in 50 μL HA), SLFNP alone (1.74 μg Li in 50 μL PBS), LiCl+HA (3.48 μg Li in 50 μL HA), LiCl alone (3.48 μg in 50 μL PBS), HA alone (50 μL), and PBS (50 μL). For control, a sham-operated group was also studied.
Sprague Dawley Rats (SD rats) were obtained from Guangxi Medical University. […]
After 4 and 8 weeks of treatment, SD rats were sacrificed by intraperitoneal overdose of pentobarbital. […] The observers evaluated the depth of lesions of the articular cartilage on a scale of 0-4 (0=normal-appearing surface, 1=minimal fibrillation or a slight yellow discoloration of the surface, 2=erosion extending into the superficial or middle layers only, 3=erosion extending into the deep layers, and 4=erosion extending to the subchondral bone). The surface area of erosion was calculated with a digital caliper and presented them as mm2, with a higher score indicating greater cartilage damage.

[5] = test system: Sprague-Dawley rats with surgery-induced OA; experiment: Histological evaluation (H&E, Safranin O-fast green, OARSI score) in rat ACLT OA model; type: in vivo
Description: Sprague Dawley Rats (SD rats) were obtained from Guangxi Medical University. All experiments were conducted in accordance with the guidelines of the Animal Committee and with ethics approval from the Guangxi Medical University Animal Care and Use Committee, China (Protocol Number: 2015-11-27). A total of 152 male SD rats with a weight of 180±20 g were used. After anesthesia, 144 randomly selected rats underwent bilateral anterior cruciate ligament transection (ACLT) on the right knee joints to induce OA. Another 8 rats received sham operations (Sham group), in which the articular cavity was opened and sutured with the short anterior cruciate ligament intact. After surgery, all animals were returned to their cages, with the limbs not immobilized. One month after the surgery, the animals were randomly sorted into […] groups (n=24) and were i.a. injected once per week with the following regimens for 8 weeks: SLFNP+HA (1.74 μg Li in 50 μL 10 mg/mL HA), SLFNP alone (1.74 μg Li in […] PBS), LiCl+HA (3.48 μg Li in 50 μL 10 mg/mL HA), LiCl alone (3.48 μg in 50 μL PBS), HA alone (50 μL), and PBS (50 μL). In the sham groups, no other procedures were conducted. The animals in the six groups were sacrificed at 4 and 8 weeks after therapy (n=12). […]

[6] = in vivo; cited from earlier work

Compound: [Li] [lithium]
- serum lithium toxicity threshold [1]: 1.5 mM

Compound: [Cl-].[Li+] [LiCl, lithium chloride]
- cell viability [2]: 80.77%
- positive ethidium homodimer-1 staining [3]: significantly reduced level of positive staining
- MMP13 expression (immunofluorescence) (MMP-13): upregulation was attenuated
- reduction of mRNA level of MMP3 (MMP3): 57.45%
- reduction of mRNA level of IL6 (IL6): 54.94%
- reduction of mRNA level of ADAMTSS (ADAMTS5): 59.77%
- reduction of mRNA level of COX-2 (COX-2): 68.29%
- reduction of mRNA level of iNOS (iNOS): 57.66%
- average lesion area ([4]; Week 4, i.a. once per week): 8.5 mm2
- average lesion area ([4]; Week 8, i.a. once per week): 10.2 mm2
- reduction of OARSI score compared to the PBS control ([5]; Week 4): 19.28%
- reduction of OARSI score compared to the PBS control ([5]; Week 8): 11.95%

Compound: hyaluronic acid [HA]
- time for i.a. injected HA to fully degrade in the joint [6]: ~ 60 h

From patent US12708606B2 (UNIVERSITY OF GEORGIA RESEARCH FOUNDATION, INC., priority 2018, dated 2026)
